Experimental data published in PMC13128454, “Mutant p53 protein accumulation is selectively targetable by proximity-inducing drugs” (Nature Chemical Biology, 2025).
“And” between values parts separate entries of the source, which are not always exact repeats. Equal values may be shown once.

Assays:
Format in all cases: cell-based
[1] = test system: Halo–p53-Y220C ΔTAD–mCherry 293T cells; experiment: annexin–PI staining; conditions: Y220C, Concentration 1.5, single replicate
Protocol: (§1) Cells were plated in six-well plates and treated with varying concentrations of compounds for 1 day. Cells were stained with annexin V–AF488 and PI following the manufacturer’s instructions (Thermo Fisher, V13241) and analyzed by flow cytometry (Beckman CytoFLEX LX), using untreated cells to establish gates.

parental 293T cells [2] = experiment: annexin–PI staining; conditions: for P3_avg (P3 = early apoptotic) / P5_avg (P5 = late apoptotic): Cell_Line WT, proportion of cells; for avgprop_P3 / avgprop_P4 / avgprop_P5 / avgprop_P2 / P2_viable / P3_AnnexinPos_PIneg / P4_PIpos_AnnexinNeg / P5_PIpos_Annexinpos / prop_P3 / prop_P4 / prop_P5 / prop_P2: WT; for avgprop_P3: average proportion AnnexinPos PIneg; for avgprop_P4: average proportion PIpos AnnexinNeg; for avgprop_P5: average proportion PIpos Annexinpos; for avgprop_P2: average proportion viable; for P2_viable / P3_AnnexinPos_PIneg / P4_PIpos_AnnexinNeg / P5_PIpos_Annexinpos: event count; for P2_viable / P3_AnnexinPos_PIneg / P4_PIpos_AnnexinNeg / P5_PIpos_Annexinpos / prop_P3 / prop_P4 / prop_P5 / prop_P2: single replicate; for prop_P3: proportion AnnexinPos PIneg; for prop_P4: proportion PIpos AnnexinNeg; for prop_P5: proportion PIpos Annexinpos; for prop_P2: proportion viable
Protocol: as §1

[3] = test system: Halo–p53-Y220C ΔTAD–mCherry 293T cells; experiment: cell-cycle analysis (DNA content, DAPI flow cytometry); set-up: 4N / 8N / Right_of_Gate1 (replicates) / Right_of_Gate2 (replicates) / 2N: unit not given here; conditions: 1 day; for 2N / 4N / 8N / Right_of_Gate1 (replicates) / Right_of_Gate2 (replicates): Y220C
Protocol: (§2) Cells were split into a 10-cm dish at low confluency (20%) and grown overnight. Cells were synchronized using overnight treatment with palbociclib (150 nM), washed and split into a six-well plate for treatment with compound for 24 h. Cells were harvested by trypsinization, washed twice with cold 1× PBS, fixed by dropwise addition of ice-cold 70% ethanol while vortexing and incubated overnight (4 °C). Fixed samples were centrifuged at 1,000g for 5 min and 70% ethanol was removed. Cells were washed twice with 1× PBS + 1% BSA before DNA labeling with 1 µg ml^−1 DAPI for 10 min at room temperature, before being analyzed for DNA content by flow cytometry (Beckman CytoFLEX LX).

parental 293T cells [4] = experiment: as above; conditions: 1 day; for 2N / 4N / Right_of_Gate1 (replicates) / Right_of_Gate2 (replicates): WT
Protocol: as §2

[5] = Conc 0.38 (unit not given; p53-01 in μM, BI2536 in nM)
[6] = Conc 0.75 (unit not given; p53-01 in μM, BI2536 in nM)
[7] = Conc 1.50 (unit not given; p53-01 in μM, BI2536 in nM)

SMILES: CC[C@@H]1C(=O)N(C)c2cnc(Nc3ccc(C(=O)NCCOCCOCCOCCOCCC(=O)N4CCC(Nc5cccc6c5cc(C#CCNc5ccc(S(C)(=O)=O)cc5OC)n6CC(F)(F)F)CC4)cc3OC)nc2N1C1CCCC1 [p53-01, PMV6-PEG4-BI2536]
- P4_PIpos_AnnexinNeg ([1]; event count): 104 and 92 and 116
- P5_PIpos_Annexinpos ([1]; event count): 109 and 111 and 125
- prop_P3 ([1]; proportion AnnexinPos PIneg): 0.253 and 0.2575 and 0.2621
- prop_P4 ([1]; proportion PIpos AnnexinNeg): 0.06906 and 0.06267 and 0.07697
- prop_P5 ([1]; proportion PIpos Annexinpos): 0.07238 and 0.07561 and 0.08295
- prop_P2 ([1]; proportion viable): 0.6056 and 0.6042 and 0.578
- P3_avg (P3 = early apoptotic) (parental 293T cells [2]; Concentration 0.75): 0.05911
- P5_avg (P5 = late apoptotic) (parental 293T cells [2]; Concentration 0.75): 0.02085
- P3_avg (P3 = early apoptotic) (parental 293T cells [2]; Concentration 1.5): 0.05067
- P5_avg (P5 = late apoptotic) (parental 293T cells [2]; Concentration 1.5): 0.02081
- avgprop_P3 (parental 293T cells [2]; Concentration 0.75): 0.05911
- avgprop_P4 (parental 293T cells [2]; Concentration 0.75): 0.03071
- avgprop_P5 (parental 293T cells [2]; Concentration 0.75): 0.02085
- avgprop_P2 (parental 293T cells [2]; Concentration 0.75): 0.8893
- P2_viable (parental 293T cells [2]; Concentration 0.75): 1988 and 1975 and 1922
- P3_AnnexinPos_PIneg (parental 293T cells [2]; Concentration 0.75): 134 and 116 and 141
- P4_PIpos_AnnexinNeg (parental 293T cells [2]; Concentration 0.75): 58 and 71 and 74
- P5_PIpos_Annexinpos (parental 293T cells [2]; Concentration 0.75): 48 and 44 and 46
- prop_P3 (parental 293T cells [2]; Concentration 0.75): 0.06014 and 0.05258 and 0.06459
- prop_P4 (parental 293T cells [2]; Concentration 0.75): 0.02603 and 0.03218 and 0.0339
- prop_P5 (parental 293T cells [2]; Concentration 0.75): 0.02154 and 0.01995 and 0.02107
- prop_P2 (parental 293T cells [2]; Concentration 0.75): 0.8923 and 0.8953 and 0.8804
- avgprop_P3 (parental 293T cells [2]; Concentration 1.5): 0.05067
- avgprop_P4 (parental 293T cells [2]; Concentration 1.5): 0.03243
- avgprop_P5 (parental 293T cells [2]; Concentration 1.5): 0.02081
- avgprop_P2 (parental 293T cells [2]; Concentration 1.5): 0.8961
- P2_viable (parental 293T cells [2]; Concentration 1.5): 1971 and 1980 and 1990
- P3_AnnexinPos_PIneg (parental 293T cells [2]; Concentration 1.5): 112 and 109 and 115
- P4_PIpos_AnnexinNeg (parental 293T cells [2]; Concentration 1.5): 75 and 68 and 72
- P5_PIpos_Annexinpos (parental 293T cells [2]; Concentration 1.5): 48 and 43 and 47
- prop_P3 (parental 293T cells [2]; Concentration 1.5): 0.05077 and 0.04955 and 0.05171
- prop_P4 (parental 293T cells [2]; Concentration 1.5): 0.034 and 0.03091 and 0.03237
- prop_P5 (parental 293T cells [2]; Concentration 1.5): 0.02176 and 0.01955 and 0.02113
- prop_P2 (parental 293T cells [2]; Concentration 1.5): 0.8935 and 0.9 and 0.8948
- DNA content ([3]; 0.75 μM, synchronized cells): accumulation of Halo–p53-Y220C ΔTAD–mCherry 293T cells with 4 N DNA content
- cells with genome doubling (8 N DNA content) ([3]; 1.5 μM): ~ 60%
- 2N [3, 5]: 58.97
- 4N [3, 5]: 39.03
- 8N [3, 5]: 2.00
- Right_of_Gate1 (replicates) [3, 5]: 41.03 and 37.34 and 37.12
- Right_of_Gate2 (replicates) [3, 5]: 2.00 and 2.08 and 2.06
- 2N [3, 6]: 39.09
- 4N [3, 6]: 57.44
- 8N [3, 6]: 3.47
- Right_of_Gate1 (replicates) [3, 6]: 60.91 and 56.52 and 59.94
- Right_of_Gate2 (replicates) [3, 6]: 3.47 and 3.35 and 3.58
- 2N [3, 7]: 1.94
- 4N [3, 7]: 38.53
- 8N [3, 7]: 59.53
- Right_of_Gate1 (replicates) [3, 7]: 98.06 (2×) and 98.33
- Right_of_Gate2 (replicates) [3, 7]: 59.53 and 59.10 and 58.35
- DNA content (parental 293T cells [4]; 0.75 μM, synchronized cells): unaffected
- 2N (parental 293T cells [4]; [5]): 59.15
- 4N (parental 293T cells [4]; [5]): 37.20
- Right_of_Gate1 (replicates) (parental 293T cells [4]; [5]): 40.85 and 40.98 and 41.52
- Right_of_Gate2 (replicates) (parental 293T cells [4]; [5]): 3.65 and 3.77 and 3.58
- 2N (parental 293T cells [4]; [6]): 59.00
- 4N (parental 293T cells [4]; [6]): 37.55
- Right_of_Gate1 (replicates) (parental 293T cells [4]; [6]): 41.00 and 43.44 and 43.05
- Right_of_Gate2 (replicates) (parental 293T cells [4]; [6]): 3.45 and 3.41 and 3.53
- 2N (parental 293T cells [4]; [7]): 35.77
- 4N (parental 293T cells [4]; [7]): 52.80
- Right_of_Gate1 (replicates) (parental 293T cells [4]; [7]): 64.23 and 64.42 and 63.80
- Right_of_Gate2 (replicates) (parental 293T cells [4]; [7]): 11.43 and 12.05 and 12.32
